Source: the NIST ThermoML archive (doi:10.1016/j.fluid.2006.03.015)

Assay: molar heat capacity at constant pressure
Settings: 101.33 kPa, Liquid

CCCCCCn1cc[n+](C)c1.O=S(=O)([O-])C(F)(F)F [1-hexyl-3-methylimidazolium trifluoromethanesulfonate]
Settings | molar heat capacity at constant pressure [J/K/mol]
313.14 K, Large sample (1 g) DSC | 517
315.15 K, Small sample (50 mg) DSC | 526
318.15 K, Large sample (1 g) DSC | 522
320.15 K, Small sample (50 mg) DSC | 528
323.17 K, Large sample (1 g) DSC | 525
325.15 K, Small sample (50 mg) DSC | 530
328.13 K, Large sample (1 g) DSC | 527
328.15 K, modulated-temperature differential scanning calorimetry MDSC | 519
330.15 K, Small sample (50 mg) DSC | 532
333.15 K, Large sample (1 g) DSC | 528
333.15 K, modulated-temperature differential scanning calorimetry MDSC | 522
335.15 K, Small sample (50 mg) DSC | 536
338.15 K, modulated-temperature differential scanning calorimetry MDSC | 524
338.16 K, Large sample (1 g) DSC | 531
340.15 K, Small sample (50 mg) DSC | 539
343.15 K, modulated-temperature differential scanning calorimetry MDSC | 528
343.16 K, Large sample (1 g) DSC | 534
345.15 K, Small sample (50 mg) DSC | 541
348.15 K, modulated-temperature differential scanning calorimetry MDSC | 530
348.16 K, Large sample (1 g) DSC | 535
350.15 K, Small sample (50 mg) DSC | 545
353.15 K, modulated-temperature differential scanning calorimetry MDSC | 532
353.18 K, Large sample (1 g) DSC | 539
355.15 K, Small sample (50 mg) DSC | 548
358.12 K, Large sample (1 g) DSC | 542
358.15 K, modulated-temperature differential scanning calorimetry MDSC | 535
360.15 K, Small sample (50 mg) DSC | 551
363.15 K, modulated-temperature differential scanning calorimetry MDSC | 538
363.17 K, Large sample (1 g) DSC | 545
365.15 K, Small sample (50 mg) DSC | 554
368.15 K, Large sample (1 g) DSC | 548
368.15 K, modulated-temperature differential scanning calorimetry MDSC | 540
370.15 K, Small sample (50 mg) DSC | 556
373.15 K, modulated-temperature differential scanning calorimetry MDSC | 543
373.17 K, Large sample (1 g) DSC | 550
375.15 K, Small sample (50 mg) DSC | 559
378.15 K, modulated-temperature differential scanning calorimetry MDSC | 544
378.17 K, Large sample (1 g) DSC | 552
380.15 K, Small sample (50 mg) DSC | 562
383.15 K, modulated-temperature differential scanning calorimetry MDSC | 547
383.17 K, Large sample (1 g) DSC | 555
385.15 K, Small sample (50 mg) DSC | 565
388.15 K, modulated-temperature differential scanning calorimetry MDSC | 549
388.16 K, Large sample (1 g) DSC | 558
390.15 K, Small sample (50 mg) DSC | 568
393.15 K, Large sample (1 g) DSC | 560
393.15 K, modulated-temperature differential scanning calorimetry MDSC | 552
395.15 K, Small sample (50 mg) DSC | 571
398.15 K, modulated-temperature differential scanning calorimetry MDSC | 554
398.18 K, Large sample (1 g) DSC | 562
400.15 K, Small sample (50 mg) DSC | 574
403.15 K, modulated-temperature differential scanning calorimetry MDSC | 556
403.16 K, Large sample (1 g) DSC | 564
405.15 K, Small sample (50 mg) DSC | 577
408.13 K, Large sample (1 g) DSC | 566
408.15 K, modulated-temperature differential scanning calorimetry MDSC | 557
410.15 K, Small sample (50 mg) DSC | 580
413.15 K, modulated-temperature differential scanning calorimetry MDSC | 562
413.16 K, Large sample (1 g) DSC | 569
415.15 K, Small sample (50 mg) DSC | 583
418.15 K, Large sample (1 g) DSC | 573
420.15 K, Small sample (50 mg) DSC | 586
423.17 K, Large sample (1 g) DSC | 572
425.15 K, Small sample (50 mg) DSC | 589

O [water]
Small sample (50 mg) DSC
Settings | molar heat capacity at constant pressure [J/K/mol]
305.15 K | 74.95
310.15 K | 74.96
315.15 K | 74.9
320.15 K | 74.93
325.15 K | 75.01
330.15 K | 75.09
335.15 K | 75.11
340.15 K | 75.23
345.15 K | 75.31
350.15 K | 75.43
355.15 K | 75.53
360.15 K | 75.59
365.15 K | 75.72
370.15 K | 75.8
